In US20120022121A1, “INDOLES, DERIVATIVES AND ANALOGS THEREOF AND USES THEREFOR” (priority 2007, published 2012):

Columns and labels:
[1] = system: PPC-1; assay: Cell viability SRB assay, 96 h; format: cell-based; details: Homo sapiens, PPC-1, 96 h
Protocol: (§1) Cell viability (LNCaP, PC-3 prostate, DU145, PPC-1, and TSU-Pr1 prostate cancer cell lines, HT-29 colon cancer cell line, and MCF-7 breast cancer cell line) was quantitated using the sulforhodamine B (SRB) assay after 96 h coincubation with different concentrations of compound in 96-well plates. Cell viability of leukemia cells (K562 and doxorubicin-resistant K562/Dox) was quantitated by MTT assay after 96 h coincubation with different concentrations of compound in 96-well plates. Drug-induced apoptosis was determined by anti-histone ELISA assay and DNA laddering. Cell cycle progression was assessed by propidium iodide staining and fluorescence-activated cell sorting (FACS) analysis. In vitro tubulin polymerization assay was determined by CytoDYNAMIX ScreenTM3 (CDS-03) kits according to the manufacturer's instructions. Anti-apoptosis protein (Bcl-2 and Bcl-xl) and pro-apoptosis protein (Bax) were examined in LNCaP and PC-3 after 24 h incubation with different concentrations of compound 13 by Western blot assay. In vivo PC-3 xenograft studies were conducted by i.v. dosing of 50 mg/kg, 100 mg/kg and 150 mg/kg for 2 weeks.
(§2) Cells were plated in 96-well plates at a density of 800-5,000 cells/well, depending on the cell line, in their required growth media containing 10% fetal bovine serum. Preliminary studies were performed with each cell line using a variety of cell densities and incubation times to determine appropriate seeding densities. The compound of interest was dissolved in DMSO, diluted in cell culture medium (final DMSO concentration was less than 0.5% v/v), and added to quadruplicate wells at final concentrations ranging from 0 to 100 μM. Control wells to which only drug-free vehicle was added were included as negative controls.
(§3) Cells were incubated for 96 hour at 37° C. in a humidified atmosphere containing 5% carbon dioxide.
(§4) Cells were stained with SRB solution. […] WinNonlin was provided by a Pharsight Academic License to The Ohio State University.

[2] = system: LNCaP; assay: Cell viability SRB assay, 96 h; format: cell-based; details: Homo sapiens
Protocol: as §1, §2, §3, §4

[3] = system: DU-145; assay: Cell viability SRB assay, 96 h; format: cell-based; details: Homo sapiens, DU-145, 96 h
Protocol: as §1, §2, §3, §4

[4] = system: PC-3; assay: Cell viability SRB assay, 96 h; format: cell-based; details: Homo sapiens, PC-3, 96 h
Protocol: as §1, §2, §3, §4

[5] = system: TSU; assay: Cell viability SRB assay, 96 h; format: cell-based; details: Homo sapiens, TSU (TSU-Pr1)
Protocol: as §1, §2, §3, §4

[6] = system: CV-1; assay: Cell viability SRB assay, 96 h; format: cell-based; details: Cercopithecidae, CV-1 fibroblast cell line
Protocol: as §2, §3

[7] = system: A375; assay: Cytotoxicity assay (SRB, 48 h); format: cell-based, human
[8] = system: Du 145; assay: Cytotoxicity assay (SRB, 96 h); format: cell-based; details: Homo sapiens; Du 145, 96 h
[9] = system: LNCaP; assay: Cytotoxicity assay (SRB, 96 h); format: cell-based; details: Homo sapiens
[10] = system: PPC-1; assay: Cytotoxicity assay (SRB, 96 h); format: cell-based; details: Homo sapiens, PPC-1, 96 h
[11] = system: WM164; assay: Cytotoxicity assay (SRB, 48 h); format: cell-based, human; details: WM164 melanoma
[12] = system: PC-3; assay: Cytotoxicity assay (SRB, 96 h); format: cell-based; details: Homo sapiens, PC-3, 96 h
[13] = system: melanoma and prostate cancer cell lines; assay: Cytotoxicity assay (SRB), summary over the cell lines of Table 3; format: cell-based; details: Homo sapiens
[14] = Homo sapiens, A-375, 48 h, A375 melanoma
[15] = Homo sapiens, A-375, A375 melanoma

Compound | IC50 [1] [µM] | IC50 [2] [µM] | IC50 [3] [µM] | IC50 [4] [µM] | IC50 [5] [µM] | IC50 [6] [µM] | melting point [°C] | IC50 [7, 14] [µM] | IC50 [8] [µM] | IC50 [9] [µM] | IC50 [10] [µM] | IC50 ([11]; Homo sapiens, WM164, 48 h) [µM] | IC50 [12] [µM] | IC50 [7, 15] [µM] | IC50 ([11]; Homo sapiens) [µM] | IC50 [13] [µM] | IC50 ([7]; A375 melanoma) [µM] | IC50 [11] [µM]
O=S(=O)(c1ccccc1)n1c(Br)cc2ccccc21 [Compound 3, 2-bromo-1-(benzenesulfonyl)indole] | 52.1 ± 1.1 | 29.6 ± 2.2 | 63.9 ± 1.9 | 69.3 ± 2.1 | 44.9 ± 2 | > 100 |  |  |  |  |  |  |  |  |  |  |  | 
O=Cc1cccc(-c2cc3ccccc3n2S(=O)(=O)c2ccccc2)c1 [Compound 5] | 13.9 ± 0.2 | 17.7 ± 1.2 | 19.7 ± 1.3 | 23.2 ± 1.4 | 11.5 ± 0.1 | > 100 | 126 to 138 |  |  |  |  |  |  |  |  |  |  | 
O=S(=O)(c1ccccc1)n1c(B(O)O)cc2ccccc21 [Compound 7, 1-(phenylsulfonyl)-1H-indol-2-yl-boronic acid, reference compound] | 80.8 ± 1.2 | 23.1 ± 4 | 72 ± 3.4 | 73.9 ± 7.1 | 48.2 ± 3.4 | > 100 |  |  |  |  |  |  |  |  |  |  |  | 
O=S(=O)(c1ccccc1)n1c(Cc2cccc(-c3cc4ccccc4n3S(=O)(=O)c3ccccc3)c2)cc2ccccc21 [Compound 9, (1-Benzenesulfonyl-1H-indol-2-yl)-[3-(1-benzenesulfonyl-1H-indol-2-yl)phenyl]methane] | > 100 | > 100 | > 100 | > 100 | > 100 |  | 76 to 78 |  |  |  |  |  |  |  |  |  |  | 
COc1cc(C(=O)c2cc3ccc(F)cc3n2S(=O)(=O)c2ccccc2)cc(OC)c1OC [Compound 106, (6-Fluoro-1-(phenylsulfonyl)-1H-indol-2-yl)(3,4,5-trimethoxyphenyl)methanone] |  |  |  |  |  |  | 171 to 173 | > 10 | > 10 | > 10 | > 10 | > 10 | > 10 |  |  |  |  | 
COc1ccc2cc(C(=O)c3cc(OC)c(OC)c(OC)c3)n(S(=O)(=O)c3ccccc3)c2c1 [Compound 107, (6-Methoxy-1-(phenylsulfonyl)-1H-indol-2-yl)(3,4,5-trimethoxyphenyl)methanone] |  |  |  |  |  |  | 156 to 158 |  | > 10 | > 10 | 1.05 |  | 2.66 | 8.22 | > 10 |  |  | 
COc1cc(C(=O)c2cc3ccc(Cl)cc3[nH]2)cc(OC)c1OC [Compound 112, (6-Chloro-1H-indol-2-yl)(3,4,5-trimethoxyphenyl)methanone] |  |  |  |  |  |  | 207 to 209 | > 10 | > 10 | > 10 | > 10 | > 10 | > 10 |  |  | > 10 |  | 
COc1cc(C(=O)c2cc3ccc(F)cc3[nH]2)cc(OC)c1OC [Compound 113, (6-Fluoro-1H-indol-2-yl)(3,4,5-trimethoxyphenyl)methanone] |  |  |  |  |  |  |  | > 10 | > 10 | > 10 | > 10 | > 10 | > 10 |  |  | > 10 |  | 
COc1ccc2cc(C(=O)c3cc(OC)c(OC)c(OC)c3)[nH]c2c1 [Compound 114, (6-Methoxy-1H-indol-2-yl)(3,4,5-trimethoxyphenyl)methanone] |  |  |  |  |  |  | 167 to 169 |  | > 10 | > 10 | > 10 |  | > 10 | > 10 | > 10 | > 10 |  | 
COc1cc(C(=O)c2cc3cc(Cl)ccc3[nH]2)cc(OC)c1OC [Compound 115, (5-Chloro-1H-indol-2-yl)(3,4,5-trimethoxyphenyl)methanone] |  |  |  |  |  |  | 252 to 254 |  | > 10 | > 10 | > 10 |  | > 10 |  |  | 1 to 10 | 1.47 | 2.16
COc1cc(C(=O)c2cc3ccc(C)cc3[nH]2)cc(OC)c1OC [Compound 116, (6-Methyl-1H-indol-2-yl)(3,4,5-trimethoxyphenyl)methanone] |  |  |  |  |  |  | 179 to 181 | > 10 | > 10 | > 10 | > 10 | > 10 | > 10 |  |  |  |  | 
COc1cc(C(=O)c2cc3cc(F)ccc3[nH]2)cc(OC)c1OC [Compound 117, (5-Fluoro-1H-indol-2-yl)(3,4,5-trimethoxyphenyl)methanone] |  |  |  |  |  |  | 196 to 198 | 2.21 | 3.42 | 8.63 | 1 | 2.26 | 9.16 |  |  |  |  | 
COc1cc(C(=O)c2nc3ccccc3[nH]2)cc(OC)c1OC [Compound 118, (1H-benzo[d]imidazol-2-yl)(3,4,5-trimethoxyphenyl)methanone] |  |  |  |  |  |  | 191 to 193 | > 10 | > 10 | > 10 | > 10 | > 10 | > 10 |  |  | > 10 |  | 
COc1cc(C(=O)c2cc3ccc(Cl)cc3n2C)cc(OC)c1OC [Compound 119, (6-Chloro-1-methyl-1H-indol-2-yl)(3,4,5-trimethoxyphenyl)methanone] |  |  |  |  |  |  |  |  | > 10 | 1.04 ± 0.25 | 4.33 ± 0.72 |  | 3.76 ± 0.83 | 6.65 ± 0.33 | 8.08 ± 1.21 |  |  | 
COc1cc(C(=O)c2cc3ccc(Cl)cc3n2Cc2ccccc2)cc(OC)c1OC [Compound 120, (1-Benzyl-6-chloro-1H-indol-2-yl)(3,4,5-trimethoxyphenyl)methanone] |  |  |  |  |  |  |  | > 10 | > 10 | > 10 | > 10 | > 10 | > 10 |  |  | > 10 |  | 
COc1cc(C(=O)c2cc3ccc(F)cc3n2C)cc(OC)c1OC [Compound 121, (6-Fluoro-1-methyl-1H-indol-2-yl)(3,4,5-trimethoxyphenyl)methanone] |  |  |  |  |  |  |  |  | > 10 | 1.05 | 8.3 |  | > 10 | 5.87 | 7.5 | 1 to 10 |  | 
COc1cc(C(=O)c2nc3ccccc3s2)cc(OC)c1OC [Compound 123a, Benzo[d]thiazol-2-yl(3,4,5-trimethoxyphenyl)methanone] |  |  |  |  |  |  | 144 to 146 | > 10 | > 10 | > 10 | > 10 | > 10 | > 10 |  |  | > 10 |  | 
COc1cc(C(=O)c2nc3ccccc3o2)cc(OC)c1OC [Compound 123b, Benzo[d]oxazol-2-yl(3,4,5-trimethoxyphenyl)methanone] |  |  |  |  |  |  | 89 to 91 | > 10 | > 10 | > 10 | > 10 | > 10 | > 10 |  |  | > 10 |  | 
COc1cc(C(O)(c2nc3ccccc3s2)c2nc3ccccc3s2)cc(OC)c1OC [Compound 127, Bis(benzo[d]thiazol-2-yl)(3,4,5-trimethoxyphenyl)methanol] |  |  |  |  |  |  | 50 to 52 | > 10 | > 10 | > 10 | > 10 | > 10 | > 10 |  |  | > 10 |  | 
c1ccc2c(Cc3c[nH]c4ccccc34)c[nH]c2c1 [Compound 128, di(1H-indol-3-yl)methane, reference compound] | 31.8 ± 1.1 | 5.8 ± 0.5 | 39.7 ± 2.6 | 39.4 ± 1.7 | 45.7 ± 1.1 | > 100 |  |  |  |  |  |  |  |  |  |  |  | 
O=S(=O)(c1ccccc1)n1cc(B(O)O)c2ccccc21 [Compound 129, reference compound] | 41.1 ± 1.8 | 18.3 ± 1.4 | 55.1 ± 2.5 | 59.9 ± 1.8 | 39.3 ± 1.6 | > 100 |  |  |  |  |  |  |  |  |  |  |  | 
COc1ccc2[nH]c(C(=O)c3cc(OC)c(OC)c(OC)c3)cc2c1 [Compound 148, (5-Methoxy-1H-indol-2-yl)(3,4,5-trimethoxyphenyl)methanone] |  |  |  |  |  |  |  |  | 0.08 | 0.05 | 0.05 |  | 0.04 | 0.03 | 0.04 | 0.05 |  | 
